# Test results: US20260207720A1, “COMPOSITIONS AND METHODS FOR TREATING FUNGAL INFECTIONS” (MUCPharm Pty Ltd, priority 2022, published 2026)
# Key:
# Type in all cases: cell-based
# [1] = test system: Candida Krusei (ATCC strain 6258); assay: Broth dilution susceptibility test, MIC and percent growth (Example 6); settings: for effect at lower doses / concentrations compared to GC (in words): below the MIC (Posaconazole 0.03 μg/ml)
# Description: A. Preparation of inoculum: • 1. Candida glabrata was grown on Sabouraud dextrose agar (SDA) at 37° C. for 24-48 hrs. • 2. Following this, 5 colonies of 1 mm diameter were picked and suspended in 5 mL sterile saline (0.9% saline) and vortexed for 15 seconds. • 3. Working suspension is prepared as a 1:100 dilution from stock suspension with RPMI 1640 culture medium. • 4. The cell density is adjusted with a spectrophotometer to the transmittance produced by a 0.5 McFarland standard (0.08 to 0.1) OD at 625 nm wavelength.
# • 1. For Bromelain, a stock concentration of 1 mg/ml Bromelain solution was prepared in RPMI media and diluted to test concentrations of 62.4, 31.2, 15.6 and 7.8 μg/ml in RPMI 1640 media. • 2. Acetylcysteine stock concentration is 200 mg/ml, diluted to 40, 20, 10, and 5 mg/ml concentrations in RPMI 1640 medium. • 3. These concentrations are prepared at 2× of the required concentrations in the final assay plate.
# Antifungal stock concentrations are as follows— • 1. Amphotericin B, Stock concentration: 250 μg/ml in water. • 2. Posaconazole, Original concentration: 300 mg in 16.7 ml, Working stock concentration: 1 mg/ml in DMSO. • 3. Fluconazole, Original concentration: 100 mg in 50 ml, Working stock concentration: 1 mg/ml in DMSO. • 4. The final concentration was prepared in RPMI 1640 media and concentrations range was 0.01-0.5 μg/mL for amphotericin B, 0.01-2 μg/mL for posaconazole and 0.01-64 μg/mL for fluconazole. • 5. These concentrations were prepared at 2× of the required concentrations in the final assay plate.
# • 1. Wells of the 96-well plates were inoculated with appropriate concentrations and volumes of drugs. • 2. Sterility control and growth controls are included in each plate. • 3. Each 96-well plate (except the control wells) contains 100 μL of double strength (twice the final antifungal drug) concentrations. • 4. 100 μL of the fungal suspension is added to 96-well plates (except the sterility control wells). • 5. The growth control wells contained 100 μL of sterile drug-free medium and 100 μL of inoculum suspension, while the sterility control wells contained 200 μl of sterile drug-free medium. • 6. Plates are then incubated at 37° C. and read at 625,430, and 530 nm wavelengths. • 7. Data from 24 hours and absorbance at 625 nm were used for analysis.
# These experiments were conducted to determine the effect of BromAc alone and in combination with existing antifungal drugs against Candida Krusei (ATCC strain 6258).
# The method used in these experiments is essentially the same as that described above in Example 5.
# [2] = test system: Aspergillus; assay: Susceptibility assay of antifungals with BromAc (Example 4); settings: antifungal in combination with BromAc (5 mg/ml Acetylcysteine+12.5 μg/ml Bromelain) vs alone
# Description: (§1) The in vitro antifungal properties of Bromelain, Acetylcysteine, BromAc, Amphotericin B, Isavuconazole, Fluconazole and Posaconazole were determined using a broth microdilution method in round bottom 96 well plates in accordance with standard procedures defined by the Clinical Laboratory Standards Institute (CLSI).
# (§2) Unless otherwise described, fungal cultures were grown on potato dextrose agar plates at 35° C. until mature (appearance of conidia) and used to prepare suspensions in sterile water. Suspensions were diluted in RPMI 1:60. These suspensions were then added in equal volume to solutions containing the candidate species described above and incubated at 35° C. for 24 hr. Plates were then analysed for fungal growth inhibition and MIC values determined.
# (§3) BromAc (5 mg/ml Acetylcysteine+12.5 μg/ml Bromelain) was used in combination with Amphotericin B, Isavuconazole, Posaconazole and Fluconazole. The MIC values of these four antifungal agents against the fungus described below were calculated and compared with their corresponding MIC values in the presence of BromAc, using the standard susceptibility assays described above.
# (§4) The fungal strains set out in Table 2, all of which were sourced from a range of clinical isolates from Australian hospitals, were used in these experiments to gain a further understanding of the efficacy of BromAc in combination with Amphotericin B, Isavuconazole, Posaconazole and Fluconazole.
# [3] = test system: Candida auris; assay: as above; settings: for isolates with more than 10× increase: Candida auris, antifungal with BromAc; for Observed inhibitory effect: Candida aurus, antifungal in combination with BromAc (5 mg/ml Acetylcysteine+12.5 μg/ml Bromelain) vs alone
# Description: as §1, §2, §3, §4
# [4] = test system: Candida glabrata; assay: as above; settings: for Observed inhibitory effect: antifungal in combination with BromAc (5 mg/ml Acetylcysteine+12.5 μg/ml Bromelain) vs alone; for isolates with more than a 10× increase in sensitivity: antifungal with BromAc
# Description: as §1, §2, §3, §4
# [5] = test system: Candida kruseii; assay: as above; settings: antifungal in combination with BromAc (5 mg/ml Acetylcysteine+12.5 μg/ml Bromelain) vs alone
# Description: as §1, §2, §3, §4
# [6] = test system: Candida parapslosis; assay: as above; settings: for increase in sensitivity: Candida parapsilosis, antifungal with BromAc; for Observed inhibitory effect: Candida parapslosis, antifungal in combination with BromAc (5 mg/ml Acetylcysteine+12.5 μg/ml Bromelain) vs alone
# Description: as §1, §2, §3, §4
# [7] = test system: Candida tropicalis; assay: as above; settings: for Observed inhibitory effect: antifungal in combination with BromAc (5 mg/ml Acetylcysteine+12.5 μg/ml Bromelain) vs alone; for isolates with more than a 10× increase in sensitivity: antifungal with BromAc
# Description: as §1, §2, §3, §4
# [8] = test system: Cryptococcus; assay: as above; settings: for Observed inhibitory effect: antifungal in combination with BromAc (5 mg/ml Acetylcysteine+12.5 μg/ml Bromelain) vs alone; for isolates with more than 10× increase: antifungal with BromAc
# Description: as §1, §2, §3, §4
# [9] = test system: Cunninghamella; assay: as above; settings: for Observed inhibitory effect: antifungal in combination with BromAc (5 mg/ml Acetylcysteine+12.5 μg/ml Bromelain) vs alone
# Description: as §1, §2, §3, §4
# [10] = test system: Fusarium; assay: as above; settings: antifungal in combination with BromAc (5 mg/ml Acetylcysteine+12.5 μg/ml Bromelain) vs alone
# Description: as §1, §2, §3, §4
# [11] = test system: Licthemia; assay: as above; settings: antifungal in combination with BromAc (5 mg/ml Acetylcysteine+12.5 μg/ml Bromelain) vs alone
# Description: as §1, §2, §3, §4
# [12] = test system: Lomentospora; assay: as above; settings: antifungal in combination with BromAc (5 mg/ml Acetylcysteine+12.5 μg/ml Bromelain) vs alone
# Description: as §1, §2, §3, §4
# [13] = test system: Mucor circinelloides; assay: as above; settings: for Observed inhibitory effect: antifungal in combination with BromAc (5 mg/ml Acetylcysteine+12.5 μg/ml Bromelain) vs alone; for isolates with increased sensitivity: antifungal with BromAc
# Description: as §1, §2, §3, §4
# [14] = test system: Scedosporium; assay: as above; settings: antifungal in combination with BromAc (5 mg/ml Acetylcysteine+12.5 μg/ml Bromelain) vs alone
# Description: as §1, §2, §3, §4
Structure (SMILES),effect at lower doses / concentrations compared to GC (in words) [1],Observed inhibitory effect [2],isolates with more than 10× increase [3],Observed inhibitory effect [3],Observed inhibitory effect [4],isolates with more than a 10× increase in sensitivity [4],Observed inhibitory effect [5],increase in sensitivity [6],Observed inhibitory effect [6],Observed inhibitory effect [7],isolates with more than a 10× increase in sensitivity [7],Observed inhibitory effect [8],isolates with more than 10× increase [8],Observed inhibitory effect [9],Observed inhibitory effect [10],Observed inhibitory effect [11],Observed inhibitory effect [12],Observed inhibitory effect [13],isolates with increased sensitivity [13],Observed inhibitory effect [14],further results
C[C@@H]1[C@H](O)[C@@H](C)/C=C/C=C/C=C/C=C/C=C/C=C/C=C/[C@H](O[C@@H]2O[C@H](C)[C@@H](O)[C@H](N)[C@@H]2O)C[C@@H]2O[C@](O)(C[C@@H](O)C[C@@H](O)[C@H](O)CC[C@@H](O)C[C@@H](O)CC(=O)O[C@H]1C)C[C@H](O)[C@H]2C(=O)O [Amphotericin B],significant inhibition,No effect,2 of 5,Moderate (Moderate = 1-5x inhibitory effect),Strong (Strong = 5-10x (or greater) inhibitory effect),5 of 5,Strong (Strong = 5-10x (or greater) inhibitory effect),~10 ×,Strong (Strong = 5-10x (or greater) inhibitory effect),Strong (Strong = 5-10x (or greater) inhibitory effect),4 of 5,Strong (Strong = 5-10x (or greater) inhibitory effect),5 of 5,Possible,No effect,Moderate (Moderate = 1-5x inhibitory effect),No effect,Strong (Strong = 5-10x (or greater) inhibitory effect),2 of 2,No effect,"MIC ([1]; Pichia kudriavzevii, ATCC6258, close to 90% inhibition): 1 µg/mL"
CC[C@@H]([C@H](C)O)n1ncn(-c2ccc(N3CCN(c4ccc(OC[C@@H]5CO[C@@](Cn6cncn6)(c6ccc(F)cc6F)C5)cc4)CC3)cc2)c1=O [Posaconazole],no significant inhibition,Moderate (Moderate = 1-5x inhibitory effect),4 of 5,Strong (Strong = 5-10x (or greater) inhibitory effect),Strong (Strong = 5-10x (or greater) inhibitory effect),5 of 5,Strong (Strong = 5-10x (or greater) inhibitory effect),more than 10 ×,Strong (Strong = 5-10x (or greater) inhibitory effect),Strong (Strong = 5-10x (or greater) inhibitory effect),4 of 5,Strong (Strong = 5-10x (or greater) inhibitory effect),5 of 5,Moderate (Moderate = 1-5x inhibitory effect),No effect,Moderate (Moderate = 1-5x inhibitory effect),No effect,Strong (Strong = 5-10x (or greater) inhibitory effect),1 of 2,Possible,"MIC ([1]; Pichia kudriavzevii, ATCC6258, FIG. 10): 1 µg/mL; inhibition at 1 µg/mL ([1]; Pichia kudriavzevii, ATCC6258, Posaconazole 1 ug/ml, Fluconazole 32 μg/ml, read-out: activity (growth inhibition) at its MIC): > 50%; interaction with BromAc (in words) ([9]; antifungal with BromAc): some synergy"
